In patent US5792742A, “Fibrin-binding peptide fragments of fibronectin” (New York University, priority 1994, dated 1998):

Legend:
fibrin [1] = assay: Fibrin-SEPHAROSE affinity chromatography (binding and elution); design: species or system bovine; settings: temperature change vs denaturing conditions (6M urea or 50% ethylene glycol) for elution
Protocol: Bovine fibrinogen was cross-linked to CNBr-activated SEPHAROSE™ (5 mg/ml beads) according to the manufacturer's instructions. Coupled fibrinogen was subsequently converted to fibrin by incubation with human thrombin to a final concentration of 5 NIH units/ml and 100 K.I. (kallikrein inhibitory) units/ml of aprotinin (in 0.05M Tris-HCI buffer, pH 7.6, containing 0.1M NaCl and 0.01M EDTA) for three hours, at room temperature (Gold, et al. (1983) Biochemistry 22, 4113-4119).
1.0M NaCl in 0.05M tris buffer, pH 8.0.
The fibrin-binding activity of the proteolytically derived 25.9 kDa fragment of Fn was determined by its ability to bind to a fibrin affinity matrix. […] FBB was used to equilibrate and wash the column. Following warming of the column to 22° C., the column was washed with FBB until absorbance at 280 nm (A280) was less than 0.01, and bound protein eluted with 0.05M Tris-HCl, 0.5M NaCl, 6M urea buffer, pH 7.6.
The module (500 μg/1.0 ml) was incubated for 4 hours (while rotating) at 4° C. in the presence of 1.0 ml fibrin-SEPHAROSE™ (5 mg fibrin/ml SEPHAROSE™ beads) equilibrated in […] Tris-HCl, 0.1M NaCl buffer, pH 7.6.
The 11 KDa peptide (50 μg/0.206 ml) was radiolabeled using the IODO-BEAD method (Pierce Chemical). The peptide was added to one IODO-BEAD in the presence of 100 μCi ^125 I (17.4 Ci/mg, New England Nuclear) and incubated on ice for 10 minutes. The bead was removed and the free ^125 I removed by chromatography through a PD10 column containing SEPHADEX™ G-25 (Pharmacia). […] The radioiodinated 11 kDa fibrin-binding peptide (500 μg/1.5 ml) was combined with 1 ml of fibrin-SEPHAROSE™ (5 mg fibrin/ml beads) equilibrated with 50 mM Tris-HCl, 0.1M NaCl buffer, pH 7.6, and rotated for 4 hours, at 4° C. The mixture was poured onto a disposable column (0.6 cm×8.0) and the unbound protein washed through. The column was equilibrated to room temperature and washed with the equilibration buffer.

fibrin [2] = assay: Elution of 11 kDa fragment from fibrin-SEPHAROSE with various agents (Table III); type: binding, bovine; settings: rotated in the cold overnight
Protocol: Since complete recovery of fibrin-binding activity was desired for use of the molecule in clinical application, various buffers were tested in an attempt to optimize recovery of the peptide while retaining maximal biological activity.

fibrin [3] = assay: Rebinding of eluted 11 kDa fragment to fibrin column; type: binding, bovine
Protocol: Thus, although 100% of the 11 kDa peptide that was applied to the column could be eluted, only 40-50% of the protein rebound to a second fibrin column at 4° C., and only 20% bound at 37° C.
The 11 kDa peptide of fibronectin (or 25.9 kDa peptide) and genetically engineered and expressed proteins of fibronectin type I repeat modules are subjected to fibrin-SEPHAROSE™ chromatography as described above.

fibrinogen = assay: Binding of eluted 11 kDa fragment to fibrinogen-SEPHAROSE column; settings: 37° C.; ethylene glycol eluted material
fibrin [4] = assay: Competitive inhibition of 125I-11 kDa binding to fibrin-coated wells; settings: 125I-11 kDa 90 nM
Protocol: Analysis of the binding data was performed by non linear regression and curve fitting to the one-site competitive binding curves (GraphPad Prism).

fibrin [5] = assay: Reversibility (displacement) of 125I-11 kDa FBP binding to fibrin; settings: 2,000 nM unlabeled peptide (22.2 molar excess)
Protocol: Detachable microtiter wells previously coated with 15 ng of fibrin were incubated with 100 ng/0.1 ml FBB (90 nM) of ^125 I-11 kDa for 1 hour at 22° C. The unbound radiolabeled protein was removed by extensive washing with FBB containing 0.1% Tween 20. […] The iodinated 11 kDa that remained bound to the removable wells was determined by quantitating the radioactivity attached to the individual wells in a gamma counter. Results were expressed as percentage of control wells incubated with buffer alone.

thrombi = assay: Preliminary thrombus binding dose experiment in rats; type: in vivo; settings: 3.4 μCi/13.3 μg/rat (550 gr)
Protocol: Determination of thrombus to blood and thrombus to muscle ratios: Before performing the pharmacokinetic studies, the arterial and venous vessels of the same animals are wounded until a thrombus is formed. The ascending vena cava (below the kidneys) and the descending aorta (immediately above the bifurcation) are clamped with a rubber tipped mosquito clamps for 2 hours for the artery and one hour for the vein. A thrombotic occlusion is formed of approximately 1.5 cm length. The specific binding of ^125 I-FBP (11 kDa to start) to the preformed thrombus, is determined compared to blood and muscle (wt/wt), over time, following injection. The amount of ^125 I-FBP that binds to an injured vessel versus an uninjured vessel is also quantitated. The time for optimal binding is crucial for feasibility of imaging (less than two hours would be considered adequate). The testing of binding to thrombi prepared 24 hours (or longer) ahead (preformed thrombi) compared to newly formed thrombi is also performed. This will determine the efficacy of ^125 I-FBP to older and newly forming thrombi.
Dosimetry Studies: Determination of the optimal dose (μCi/μg/kg) required for binding (Dose response) to thrombi: Three different doses were injected following injury, and thrombi removed at the various indicated above.

Q: Which results are given for “11 kDa FBP: 11 kDa C-terminal proteolytic (subtilisin) fibrin-binding fragment of human plasma fibronectin, residues 2123-2232 of SEQ ID NO:1”?
A: relative affinity for fibrin (from elution conditions) (fibrin [1]): markedly higher; % ELUTED from fibrin-SEPHAROSE (fibrin [2]; agent 1.0M Arginine, listed as 11 kDa FIBRIN-BINDING FRAGMENT): 26%; % ELUTED from fibrin-SEPHAROSE (fibrin [2]; agent 1.0M Arginine, listed as 11 kDa peptide): 25%; % ELUTED from fibrin-SEPHAROSE (fibrin [2]; agent 1.0M KBr): 55-65%; % ELUTED from fibrin-SEPHAROSE (fibrin [2]; agent 2.0M Urea): 32%; % ELUTED from fibrin-SEPHAROSE (fibrin [2]; agent 4.0M Urea): 50-60%; % ELUTED from fibrin-SEPHAROSE (fibrin [2]; agent 6.0M Urea): 100%; % ELUTED from fibrin-SEPHAROSE (fibrin [2]; agent 50% ethylene glycol, pH 11.5): 77%; % Rebound to fibrin (fibrin [3]; 4° C., eluted with 1.0M KBr): 7-10%; % Rebound to fibrin (fibrin [3]; 4° C., eluted with 2.0M Urea): 60%; % Rebound to fibrin (fibrin [3]; 4° C., eluted with 4.0M Urea): 45-52%; % Rebound to fibrin (fibrin [3]; 4° C., eluted with 6.0M Urea): 40-50%; % Rebound to fibrin (fibrin [3]; 4° C., eluted with 6.0M Urea (step dialysis)): 40-50%; % Rebound to fibrin (fibrin [3]; 4° C., eluted with ethylene glycol, listed as 11 kDa FRAGMENT): 80%; % Rebound to fibrin (fibrin [3]; 4° C., eluted with ethylene glycol, listed as 11 kDa peptide): 60%; % Rebound to fibrin (fibrin [3]; 37° C., eluted with 6.0M urea): 20%; % Rebound to fibrin (fibrin [3]; 37° C., eluted with ethylene glycol): 49.5%; % of applied material bound to fibrinogen-SEPHAROSE column (fibrinogen): 4-5%; concentration at which maximum inhibition was achieved (fibrin [4]): 4 µM; molar excess at maximum inhibition (fibrin [4]): 44.4; IC50 (fibrin [4]; 15 ng fibrin, 1 hour 22° C., read-out: IC50, 125I-11 kDa binding to fibrin decreased by 50%): 605 nM; % of bound iodinated 11 kDa reversibly displaced (fibrin [5]): 42%; binding to thrombi compared to blood (thrombi): sufficient binding to thrombi compared to blood
